In patent US9326511B2, “Methods of inhibiting microbial biofilms” (priority 2008, dated 2016):
Where two headings read alike, the source gives them in different places. Values belong to the compound of their own block, whether it stands above or below them.

Legend:
[1] = tested on: S. aureus SH1000 biofilms; test: Biofilm MIC and minimum biofilm eradication concentration, Calgary Biofilm Device; type: cell-based, Staphylococcus aureus; details: Staphylococcus aureus, SH1000BIOFILMS, biofilm MIC, read-out: bMIC
Method: (§1) Methods: MICs were determined for planktonic cultures by broth microdilution according to British Society for Antimicrobial Chemotherapy (BSAC) guidelines. Biofilm MICs (bMIC) and minimum biofilm eradication concentrations (MBECs) were determined using the Calgary biofilm device. The effect of Compound 10 on the viability of cold culture cells was determined by growing S. aureus SH1000 to early exponential phase at 37° C. and resuspending the cells in pre-chilled media, where they were maintained in the presence and absence of Compound 10 and control agents. The effect of Compound 10 on slow growing cells expressing the stringent response was also determined by growing cultures to early log phase and the stringent response induced by the addition of the isoleucyl-tRNA synthetase inhibitor mupirocin. Compound 10 and control agents were then added and samples recovered for viable cell determinations.
Biofilm MICs and minimum biofilm eradication concentrations (MBEC) were determined in the Calgary Biofilm Device (Nunc Inc, Roskilde, Denmark) as described by Miller et al., 2005. This involves the following steps. Aliquots (200 μL) of exponential phase cultures of strain SH1000 were added to each well of a 96-well microtitre tray. The lid assembly, which has 96 polystyrene pegs corresponding to each well, was then replaced and the system incubated for 24 hours at 37° C. on a rocking platform. Following this a biofilm of approximately 10^7 cfu matured on each peg. The lid was then washed twice in phosphate-buffered saline (PBS) to remove residual planktonic growth and then placed into a microtitre tray with fresh media containing doubling dilutions of the test antibiotic. The system was then incubated for 24 hours at 37° C. on a rocking platform. The MIC was defined as the lowest concentration of antibiotic completely inhibiting visible growth after this incubation. After the MIC was recorded, the lid assembly was again washed twice in PBS to remove planktonic cells and remaining antibiotic and then placed into fresh drug-free media. The system was incubated for a further 24 hours and the MBEC was defined as the lowest concentration of antibiotic completely inhibiting the re-establishment of planktonic growth.

Enterococcus faecalis = test: MIC (IsoSensitest broth) and MBC (subculture onto Columbia blood agar), reference strains and clinical isolates; type: cell-based; details: dark, 24 hours
Method: The Minimum Inhibitory Concentrations (MIC's) for Compound 10, over a range of reference strains and clinical isolates, were determined using IsoSensitest® broth and Minimum Bactericidal concentrations (MBC's) determined by subculture onto Columbia blood agar.
• 1. A 5 mg/ml stock solution of Compound 10 was made up in water • 2. A series of dilutions were undertaken to produce a range of concentrations between 32-0.001 mg/L • 3. The test microorganisms were grown up overnight in IsoSensitest® broth • 4. The cultures were then diluted with fresh broth to a final concentration of 10^4 organisms/ml and placed on a shaker for 90 minutes at 37° C. • 5. 90 μl of the broth culture containing the microorganisms were transferred to each of 12 wells in a row in a microtitre tray and repeated in a control tray—four organisms per tray. • 6. 90 μL of the appropriate Compound 10 dilution was then added to each well containing organisms to give a final dilution series from 16 mg/L to 0.0005 mg/L • 7. The solutions were mixed well and incubated in the dark for 24 hours • 8. […] The MBC values were recorded after overnight incubation of the subcultures. • 10. Controls of uninoculated broth and broth plus inoculum were undertaken for each organism in each tray Results

[2] = tested on: S. aureus SH1000 cold cultures; test: Time-kill against cold cultures (4° C.); type: cell-based, Staphylococcus aureus; details: for viability / bactericidal activity in time-kill (in words): cold culture held at 4° C. for 5 hours, agents at 4×MIC
Method: as §1
The effect of XF drugs on the viability of cold culture cells was determined by growing S. aureus SH1000 to early exponential phase at 37° C., harvesting the cells by centrifugation (5,000×g, 10 min.) and resuspending them in pre-chilled media where they were maintained in the presence and absence of XF drugs and control agents for 5 hours. […] (FIG. 11).
The anti-staphylococcal activities of Compound 10, Compound 12 and a range of comparator agents against slow-growing cultures of Staphylococcus aureus were studied using standard time-kill methodology (Oliva et al. 2003, Hobbs et al. 2008). Staphylococcus aureus SH1000 cultures were grown to early exponential phase (OD600 nm of 0.2) in Mueller-Hinton broth (MHB) before being exposed to antibacterial agents at 4×MIC. An untreated culture served as the negative control. The experiments were undertaken in triplicate.
Cold cultures were prepared by growing SH1000 cells to early exponential phase (OD600 nm of 0.2) at 37° C. Cultures were then centrifuged and the cell pellet was resuspended in MHB pre-chilled to 4° C. The killing kinetics of antimicrobial agents were studied as described in the section above, with the exception that cultures were maintained at 4° C. over the 5 hour sampling period.

S. aureus SH1000 = test: Planktonic MIC by broth microdilution (BSAC guidelines); type: cell-based, Staphylococcus aureus
Method: as §1

[3] = tested on: S. aureus SH1000 stationary phase cultures; test: Time-kill against stationary phase cultures; type: cell-based, Staphylococcus aureus; details: early, mid and late stationary phase (24, 48, 72 hours), 10^8 bacteria/mL in spent medium
Method: The anti-staphylococcal activities of Compound 10, Compound 12 and a range of comparator agents against stationary phase cultures of Staphylococcus aureus were studied using standard time-kill methodology (Oliva et al., 2003, Hobbs et al., 2008). A growth curve was constructed to identify when SH1000 cultures enter and leave stationary phase. 50 mL of Mueller-Hinton broth (MHB) was inoculated with 500 μL of Staphylococcus aureus SH1000 overnight culture and was maintained at 37° C. with agitation for 8 days. The culture turbidity at OD600 nm was measured at regular intervals using a Jenway 6300 spectrophotometer with a 1 cm light path (Jenway, Essex, UK). Staphylococcus aureus SH1000 cultures were grown to early, mid and late stationary phase at 37° C. by incubation for 24, 48 and 72 hours respectively. Cultures were centrifuged, the supernatant was removed, and then a portion of the cell pellet was resuspended in the counterpart supernatant to an OD600 nm of 0.2 (10^8 bacteria/mL). A time-kill assay was then performed on these stationary phase suspensions to study the effects of antimicrobial agents on bacterial cell viability. An untreated culture served as the negative control. The experiments were undertaken in triplicate. […]

[4] = 24 h, S. aureus SH1000, Calgary Biofilm Device, 24 hours (Table 6)

Structure (SMILES): C[N+](C)(C)CCCOc1ccc(-c2c3nc(cc4ccc([nH]4)c(-c4ccc(OCCC[N+](C)(C)C)cc4)c4nc(cc5ccc2[nH]5)C=C4)C=C3)cc1.[Cl-].[Cl-] [Compound 10, 5,15-bis-[4-(3-Trimethylammonio-propyloxy)-phenyl]-porphyrin dichloride]
MIC [1, 4]: 1 µg/mL
MIC ([1]; S. aureus SH1000, Calgary device (Example H)): 1 µg/mL
Cpd 10 MIC (Enterococcus faecalis; strain E4 (clinical isolate)): 0.5 µg/mL
Cpd 10 MIC (Enterococcus faecalis; strain E10 (clinical isolate)): 0.5 µg/mL
Cpd 10 MIC (Enterococcus faecalis; strain E37 (clinical isolate)): 0.5 µg/mL
drop in viability ([2]; cold culture (4° C.), 4×MIC, within 1 hour): 5 log
viability / bactericidal activity in time-kill (in words) [2]: retained potent bactericidal activity
MIC (S. aureus SH1000; Staphylococcus aureus, planktonic S. aureus SH1000 (Table 5), read-out: MIC): 1 µg/mL
MIC (S. aureus SH1000; planktonic S. aureus SH1000 (Table 6)): 1 µg/mL
bactericidal activity in time-kill (in words) [3]: retained potent bactericidal activity

MIC (S. aureus SH1000; Staphylococcus aureus, planktonic S. aureus SH1000 (Table 6), read-out: MIC): 1 µg/mL
Structure (SMILES): C[N+](C)(C)CCCOc1cccc(-c2c3nc(cc4ccc([nH]4)c(-c4cccc(OCCC[N+](C)(C)C)c4)c4nc(cc5ccc2[nH]5)C=C4)C=C3)c1.[Cl-].[Cl-] [Compound 12, 5,15-bis-[3-(3-Trimethylammonio-propyloxy)-phenyl]-porphyrin dichloride]
MIC [1, 4]: 1 µg/mL
viability / bactericidal activity in time-kill (in words) [2]: retained potent bactericidal activity
bactericidal activity in time-kill (in words) [3]: retained potent bactericidal activity
